Reference: patent US9695155B2, “Herbicidal substituted pyrimidinyloxy benzene compounds” (E. I. DU PONT DE NEMOURS AND COMPANY, priority 2013, dated 2017)

Key:
[1] = tested on: corn; assay: Test C postemergence; format: in vivo, Zea mays; settings: for Plant response rating, Corn: Postemergence
Method in brief: (§1)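 Visual injury score versus untreated controls, 0 = no effect, 100 = complete control, taken 13 to 15 days after treatment in the greenhouse. Pre-emergence pots held loam/sand; post-emergence plants grew in sphagnum peat/vermiculite mix and were sprayed at the 1- to 4-leaf stage.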

[2] = tested on: barnyardgrass; assay: Test C postemergence; format: in vivo, Echinochloa crus-galli; settings: for Plant response rating, Barnyardgrass: Postemergence
Method in brief: as §1

[3] = tested on: pigweed; assay: Test C preemergence; format: in vivo, Amaranthus retroflexus; settings: for Pigweed plant response rating: preemergence
Method in brief: as §1

[4] = tested on: giant foxtail; assay: Test A preemergence; format: in vivo, Setaria faberii
Method in brief: (§2)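 Greenhouse pot test, loam/sand soil. Formulation: non-phytotoxic solvent mix plus surfactant. Pre: directed spray onto soil after sowing. Post: plants at 1–2 leaf, 2–10 cm. Rated visually vs untreated controls at ~10 d, 0 (no effect) to 100 (complete control).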

[5] = tested on: Italian ryegrass; assay: Test C postemergence; format: in vivo, Lolium multiflorum; settings: for Plant response rating, Ryegrass, Italian: Postemergence, scale 0 to 100 (0 no effect, 100 complete control)
Method in brief: as §1

[6] = tested on: pigweed; assay: Test A preemergence; format: in vivo, Amaranthus retroflexus
Method in brief: as §2

[7] = tested on: barnyardgrass; assay: Test C preemergence; format: in vivo, Echinochloa crus-galli; settings: for Barnyardgrass plant response rating: preemergence
Method in brief: as §1

[8] = tested on: giant foxtail; assay: Test C preemergence; format: in vivo, Setaria faberii; settings: for Foxtail, Giant plant response rating: preemergence
Method in brief: as §1

[9] = tested on: rice; assay: Test B flooded paddy test; format: in vivo, Oryza sativa; settings: Flood, 250 g ai/ha; 0 to 100 scale where 0 is no effect and 100 is complete control
Method in brief: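 2-leaf stage plants; pots flooded to 3 cm, compound added to paddy water, depth maintained. Greenhouse 13–15 d. Visual rating vs untreated controls, 0 (no effect) to 100 (complete control); dash = no result.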

[10] = tested on: yellow nutsedge; assay: Test C preemergence; format: in vivo, Cyperus esculentus; settings: for Nutsedge, Yellow plant response rating: preemergence
Method in brief: as §1

[11] = tested on: kochia; assay: Test C postemergence; format: in vivo, Kochia scoparia; settings: for Plant response rating, Kochia: Postemergence
Method in brief: as §1

[12] = tested on: yellow nutsedge; assay: Test C postemergence; format: in vivo, Cyperus esculentus; settings: for Plant response rating, Nutsedge, Yellow: Postemergence, scale 0 to 100 (0 no effect, 100 complete control)
Method in brief: as §1

[13] = tested on: galium; assay: Test C postemergence; format: in vivo, Galium aparine; settings: for Plant response rating, Galium: Postemergence
Method in brief: as §1

[14] = tested on: wheat, winter; assay: Test C postemergence; format: in vivo, Triticum aestivum; settings: for Plant response rating, Wheat: Postemergence, scale 0 to 100 (0 no effect, 100 complete control)
Method in brief: as §1

[15] = 16 g ai/ha, postemergence, visual rating, scale 0 to 100 (0 no effect, 100 complete control), 13 to 15 days
[16] = 31 g ai/ha, scale 0 to 100 (0 no effect, 100 complete control), 13 to 15 days
[17] = 62 g ai/ha, scale 0 to 100 (0 no effect, 100 complete control)
[18] = 16 g ai/ha, scale 0 to 100 (0 no effect, 100 complete control)
[19] = 62 g ai/ha, scale 0 (no effect) to 100 (complete control)
[20] = 125 g ai/ha, scale 0 (no effect) to 100 (complete control)
[21] = Preemergence, 31 g ai/ha, scale 0 to 100, 0 no effect, 100 complete control
[22] = 125 g ai/ha, 0 to 100 scale where 0 is no effect and 100 is complete control
[23] = 500 g ai/ha, 0 to 100 scale, 0 no effect, 100 complete control, approx. 10 days

## N#Cc1cccc(Oc2ncc(F)cn2)c1-n1cc(I)cn1 [Compound 86]
[1]; [15]
  Corn plant response rating: 5
[1]; 125 g ai/ha, postemergence
  Plant response rating (0 to 100), Corn: 10
[1]; [16]
  Plant response rating, Corn: 5
[1]; [17]
  Plant response rating, Corn: 5
[2]; [15]
  Barnyardgrass plant response rating: 0
[2]; 125 g ai/ha, postemergence
  Plant response rating (0 to 100), Barnyardgrass: 5
[2]; [16]
  Plant response rating, Barnyardgrass: 5
[2]; [17]
  Plant response rating, Barnyardgrass: 5
[3]; [18]
  Pigweed plant response rating: 90
[3]; [19]
  Pigweed plant response rating: 100
[3]; [20]
  Pigweed plant response rating: 100
[3]; [21]
  Plant response rating, Pigweed: 100
[4]; [22]
  Plant response rating, Foxtail, Giant: 100
[4]; [23]
  Foxtail, Giant plant response rating: 100
[5]; 125 g ai/ha, postemergence
  Plant response rating (0 to 100), Ryegrass, Italian: 5
[5]; 31 g ai/ha, 13 to 15 days
  Plant response rating, Ryegrass, Italian: 0
[5]; 62 g ai/ha
  Plant response rating, Ryegrass, Italian: 5
[6]; [22]
  Plant response rating, Pigweed: 100
[6]; [23]
  Pigweed plant response rating: 100
[7]; [18]
  Barnyardgrass plant response rating: 5
[7]; [19]
  Barnyardgrass plant response rating: 40
[7]; [20]
  Barnyardgrass plant response rating: 95
[7]; [21]
  Plant response rating, Barnyardgrass: 10
[8]; [18]
  Foxtail, Giant plant response rating: 35
[8]; [19]
  Foxtail, Giant plant response rating: 100
[8]; [20]
  Foxtail, Giant plant response rating: 100
[8]; [21]
  Plant response rating, Foxtail, Giant: 75
[9]
  Plant response rating, Rice: 0
[10]; [18]
  Nutsedge, Yellow plant response rating: 0
[10]; [19]
  Nutsedge, Yellow plant response rating: 5
[10]; [20]
  Nutsedge, Yellow plant response rating: 35
[10]; [21]
  Plant response rating, Nutsedge, Yellow: 0
[11]; [15]
  Kochia plant response rating: 50
[11]; 125 g ai/ha, postemergence
  Plant response rating (0 to 100), Kochia: 95
[11]; [16]
  Plant response rating, Kochia: 60
[11]; [17]
  Plant response rating, Kochia: 90
[12]; 125 g ai/ha, postemergence
  Plant response rating (0 to 100), Nutsedge, Yellow: 5
[12]; 31 g ai/ha, 13 to 15 days
  Plant response rating, Nutsedge, Yellow: 0
[12]; 62 g ai/ha
  Plant response rating, Nutsedge, Yellow: 5
[13]; [15]
  Galium plant response rating: 55
[13]; 125 g ai/ha, postemergence
  Plant response rating (0 to 100), Galium: 80
[13]; [16]
  Plant response rating, Galium: 60
[13]; [17]
  Plant response rating, Galium: 80
[14]; 125 g ai/ha, postemergence
  Plant response rating (0 to 100), Wheat: 0
[14]; 31 g ai/ha, 13 to 15 days
  Plant response rating, Wheat: 0
[14]; 62 g ai/ha
  Plant response rating, Wheat: 0
